GI50 and TGI data for 8 compounds are collected here from PubChem BioAssay (NCI).

Test systems include RPMI-8226 leukemia; SNB-19 CNS; NCI-H460 lung; ACHN renal; HL-60(TB) leukemia; SNB-75 CNS; CAKI-1 renal; HOP-92 NSCLC; MDA-MB-435; M14 melanoma.
Common to all, as to assay: growth of human tumour cells (NCI), 48 h

Where “and” joins values, the source holds several entries; their conditions need not be identical. Equal entries are not always repeated.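 Five concentrations, 48 hours, 96-well plates. GI50 marks 50% less growth. Definition used: TGI = concentration required for complete inhibition of growth.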

As to `CN(C)C/C=C/C(=O)Nc1cc2c(Nc3cccc(Cl)c3F)ncnc2cc1OCCOC(F)F`, the GI50 in the assay on RPMI-8226 leukemia is 1.53 µM; with SNB-19 CNS, 1.97 µM; in the assay on NCI-H460 lung, 2.82 µM; in the assay on ACHN renal, less than 0.01 µM; in the assay on HL-60(TB) leukemia, 1.71 µM; in the assay with SNB-75 CNS, 0.494 µM. In addition, the GI50 with CAKI-1 renal is less than 0.01 µM; in the assay on HOP-92 NSCLC, 0.205 µM; with MDA-MB-435, 2.22 µM; in the assay with M14 melanoma, 3.08 µM. The TGI in the assay with RPMI-8226 leukemia was 5.27 µM; in the assay with SNB-19 CNS it was 13.3 µM; in the assay with NCI-H460 lung, 13.5 µM; with ACHN renal it was 10.7 µM; in the assay with HL-60(TB) leukemia it was 7.23 µM; in the assay with SNB-75 CNS it was 3.79 µM. Besides, the TGI with CAKI-1 renal was found to be 1.65 µM; in the assay on HOP-92 NSCLC it was 2.05 µM; in the assay on MDA-MB-435 it was 11.2 µM; with M14 melanoma, 14.3 µM.

With `OCC1OC(n2cnc3c(NCc4ccccc4O)ncnc32)C(O)C1O` (stereo not drawn), the GI50 with RPMI-8226 leukemia was 5.11 µM; with SNB-19 CNS it was 1.39 µM; with NCI-H460 lung it was 8.57 µM; with ACHN renal it was 0.327 µM; in the assay on HL-60(TB) leukemia it was 0.228 µM; in the assay on SNB-75 CNS it was 1.74 µM. In addition, the GI50 in the assay on CAKI-1 renal is 0.349 µM; in the assay on HOP-92 NSCLC, 0.709 µM; in the assay on MDA-MB-435, 0.184 µM; in the assay with M14 melanoma it was 0.756 µM. For the same compound, the TGI with RPMI-8226 leukemia is more than 63.6 µM; with SNB-19 CNS it was more than 100 µM; in the assay on NCI-H460 lung it was 46.3 µM; in the assay on ACHN renal, more than 44.4 µM; in the assay on HL-60(TB) leukemia it was 0.92 µM; in the assay with SNB-75 CNS it was 18.3 µM. Further, the TGI in the assay with CAKI-1 renal is 9.43 µM; with HOP-92 NSCLC it was 7.51 µM; in the assay with MDA-MB-435, 3.2 µM; in the assay with M14 melanoma, 11.8 µM.

Take `C/C(=N\NC(=S)N1CCN(c2ccccn2)CC1)c1cccc2cccnc12`: the TGI was 20.2 µM with RPMI-8226 leukemia; more than 100 µM in the assay with SNB-19 CNS; more than 100 µM with NCI-H460 lung; more than 100 µM in the assay on ACHN renal; 12.3 µM in the assay on HL-60(TB) leukemia; more than 70.2 µM in the assay on SNB-75 CNS. The TGI with CAKI-1 renal was more than 100 µM; with HOP-92 NSCLC, 52.3 µM; in the assay on MDA-MB-435 it was more than 100 µM; with M14 melanoma it was more than 47.4 µM.

On to `COc1ccc2nc3ccccc3c(NCc3ccccc3)c2c1`, for which the GI50 in the assay on RPMI-8226 leukemia is 1.93 µM; in the assay on SNB-19 CNS, 3.41 µM; in the assay on NCI-H460 lung, 2.19 µM; with ACHN renal, 2.01 µM; in the assay on HL-60(TB) leukemia, 2.15 µM; with SNB-75 CNS, 2.48 µM. In addition, the GI50 with CAKI-1 renal is 1.94 µM; in the assay on HOP-92 NSCLC it was 2.33 µM; in the assay with MDA-MB-435 it was 1.91 µM; in the assay with M14 melanoma, 1.73 µM. For the same compound, the TGI in the assay with RPMI-8226 leukemia turned out to be 4.49 µM; in the assay with SNB-19 CNS, 13.7 µM; with NCI-H460 lung, 4.86 µM; in the assay with ACHN renal, 5.97 µM; in the assay with HL-60(TB) leukemia it was 4.81 µM; with SNB-75 CNS, 10 µM. For the same compound, the TGI worked out at 6.82 µM with CAKI-1 renal, 7.88 µM in the assay with HOP-92 NSCLC, 3.93 µM in the assay with MDA-MB-435 and 3.58 µM in the assay with M14 melanoma.

As to `Cc1cn(C2CC(O)C(COC(N)=O)O2)c(=O)[nH]c1=O` (stereo not drawn), the TGI in the assay on RPMI-8226 leukemia, in the assay on SNB-19 CNS, with NCI-H460 lung, with ACHN renal, in the assay on HL-60(TB) leukemia and with SNB-75 CNS was more than 100 µM in each case. For the same compound, the TGI in the assay on CAKI-1 renal, with HOP-92 NSCLC, in the assay on MDA-MB-435 and in the assay on M14 melanoma was more than 100 µM throughout.

Consider `Nc1no[n+]([O-])c1-c1nnc2c(n1)-c1ccccc1C2=O`, for which the GI50 in the assay with RPMI-8226 leukemia was 2.76 µM; in the assay on SNB-19 CNS, 4.88 µM; with NCI-H460 lung, 3.38 µM; in the assay with ACHN renal, 1.56 µM; in the assay on HL-60(TB) leukemia it was 2.13 µM; in the assay on SNB-75 CNS it was 17.4 µM. For the same compound, the GI50 in the assay on CAKI-1 renal is 2.3 µM; with HOP-92 NSCLC, 2.21 µM; in the assay with MDA-MB-435, 1.91 µM; in the assay with M14 melanoma, 1.78 µM. Besides, the TGI stood at 7.73 µM in the assay with RPMI-8226 leukemia; 16.7 µM in the assay on SNB-19 CNS; 11.4 µM in the assay on NCI-H460 lung; 3.1 µM in the assay on ACHN renal; 5.54 µM with HL-60(TB) leukemia; 34.5 µM with SNB-75 CNS. Moreover, the TGI worked out at 6.67 µM in the assay on CAKI-1 renal, 6.63 µM with HOP-92 NSCLC, 3.82 µM in the assay on MDA-MB-435 and 3.66 µM in the assay with M14 melanoma.

On to `NCCCNc1nc2ccccc2c2c(=O)c3cc(F)cc(Cl)c3sc12`, for which the GI50 with RPMI-8226 leukemia was 2.13 µM; in the assay with SNB-19 CNS, 1.77 µM; in the assay on NCI-H460 lung it was 1.64 µM; in the assay on ACHN renal it was 1.7 µM; with HL-60(TB) leukemia, 2.45 µM; in the assay with SNB-75 CNS, 1.54 µM. Further, the GI50 in the assay with CAKI-1 renal is 1.58 µM; in the assay with HOP-92 NSCLC, 1.87 µM; with MDA-MB-435 it was 1.66 µM; in the assay on M14 melanoma, 1.78 µM. For the same compound, the TGI came out at 5.03 µM in the assay with RPMI-8226 leukemia; 3.33 µM in the assay with SNB-19 CNS; 3.11 µM in the assay on NCI-H460 lung; 3.07 µM with ACHN renal; 6.58 µM in the assay on HL-60(TB) leukemia; 2.96 µM in the assay on SNB-75 CNS. Also, the TGI was 2.95 µM in the assay with CAKI-1 renal, 11.8 µM with HOP-92 NSCLC, 3.04 µM with MDA-MB-435 and 3.28 µM with M14 melanoma.

Take `NC(Cc1c[nH]c2cccc(F)c12)C(=O)O` (stereo not drawn): the TGI in the assay on RPMI-8226 leukemia is more than 4500 µM; in the assay on SNB-19 CNS, more than 4500 µM; in the assay with NCI-H460 lung it was 2460 µM; in the assay on ACHN renal, more than 4500 µM; with HL-60(TB) leukemia it was more than 4500 µM; in the assay with SNB-75 CNS, 2790 µM. Also, the TGI in the assay with CAKI-1 renal, with HOP-92 NSCLC, with MDA-MB-435 and in the assay with M14 melanoma was more than 4500 µM throughout. Also, the GI50 with SNB-19 CNS is 1120 µM; with NCI-H460 lung, 34.9 µM and 235 µM; in the assay with ACHN renal it was 679 µM; in the assay on SNB-75 CNS, 77.2 µM and 726 µM; with CAKI-1 renal it was 1080 µM; in the assay with HOP-92 NSCLC it was 4110 µM. Besides, the GI50 is 50.9 µM and 189 µM in the assay on MDA-MB-435; 59.9 µM and 590 µM in the assay with M14 melanoma.
